Assays:
Type in all cases: in vivo
Setaria faberi (SETFA) [1] = experiment: Comparative experiment, post-emergence phytotoxicity; details: POST Application; Rate 125 g/ha
Method: (§1) A comparative experiment is conducted to show the advantage provided by the compounds of the present invention. Thus the biological performance of representative compounds 1.001, 1.043, 2.002 & 2.024 of the present invention are compared with Compound C1, which is an aniline compound of the type referred to in WO2012/028579. Results are given as (%) phytotoxicity observed.

[2] = system: Amaranthus retroflexus (AMARE); experiment: as above; details: POST Application; Rate 125 g/ha
Method: as §1

[3] = system: Ipomoea hederacea (IPOHE); experiment: Glasshouse herbicide test, post-emergence; details: POST Application; 500 g/h; evaluated after 13 days
Method: (§2) Seeds of a variety of test species are shown in standard soil in pots (Lolium perenne (LOLPE), Amaranthus retoflexus (AMARE), Abutilon theophrasti (ABUTH), Setaria faberi (SETFA), Echinochloa crus-galli (ECHCG), Ipomoea hederacea (IPOHE)). After cultivation for one day (pre-emergence) or after 8 days cultivation (post-emergence) under controlled conditions in a glasshouse (at 24/16° C., day/night; 14 hours light; 65% humidity), the plants are sprayed with an aqueous spray solution derived from the formulation of the technical active ingredient in acetone/water (50:50) solution containing 0.5% Tween 20 (polyoxyethelyene sorbitan monolaurate, CAS RN 9005-64-5). Compounds are applied at 500 g/h. The test plants are then grown in a glasshouse under controlled conditions in a glasshouse (at 24/16° C., day/night; 14 hours light; 65% humidity) and watered twice daily. After 13 days for pre and post-emergence, the test is evaluated for the percentage damage caused to the plant. The biological activities are shown in the following table on a five point scale (5=80-100%; 4=60-79%; 3=40-59%; 2=20-39%; 1=0-19%).

Setaria faberi (SETFA) [4] = experiment: Glasshouse herbicide test, post-emergence; details: POST Application; 500 g/h; evaluated after 13 days
Method: as §2

[5] = system: Amaranthus retoflexus (AMARE); experiment: Glasshouse herbicide test, post-emergence; details: POST Application; 500 g/h; evaluated after 13 days
Method: as §2

[6] = system: Echinochloa crus-galli (ECHCG); experiment: Glasshouse herbicide test, post-emergence; details: POST Application; 500 g/h; evaluated after 13 days
Method: as §2

[7] = system: Abutilon theophrasti (ABUTH); experiment: Glasshouse herbicide test, post-emergence; details: POST Application; 500 g/h; evaluated after 13 days
Method: as §2

[8] = system: Ipomoea hederacea (IPOHE); experiment: Glasshouse herbicide test, pre-emergence; details: PRE Application; 500 g/h; evaluated after 13 days
Method: as §2

Setaria faberi (SETFA) [9] = experiment: Glasshouse herbicide test, pre-emergence; details: PRE Application; 500 g/h; evaluated after 13 days
Method: as §2

[10] = system: Amaranthus retoflexus (AMARE); experiment: Glasshouse herbicide test, pre-emergence; details: PRE Application; 500 g/h; evaluated after 13 days
Method: as §2

[11] = system: Echinochloa crus-galli (ECHCG); experiment: Glasshouse herbicide test, pre-emergence; details: PRE Application; 500 g/h; evaluated after 13 days
Method: as §2

[12] = system: Abutilon theophrasti (ABUTH); experiment: Glasshouse herbicide test, pre-emergence; details: PRE Application; 500 g/h; evaluated after 13 days
Method: as §2

CON(C(C)=O)c1c(C(F)(F)F)ccc(C(=O)Nc2nnnn2C)c1Cl [Compound 1.001, 3-[acetyl(methoxy)amino]-2-chloro-N-(1-methyltetrazol-5-yl)-4-(trifluoromethyl)benzamide]
(%) phytotoxicity observed, SETFA (Setaria faberi (SETFA) [1]): 90% | (%) phytotoxicity observed, AMARE [2]: 90% | percentage damage caused to the plant, five point scale, IPOHE [3]: 5 (5=80-100%) | percentage damage caused to the plant, five point scale, SETFA (Setaria faberi (SETFA) [4]): 5 (5=80-100%) | percentage damage caused to the plant, five point scale, AMARE [5]: 5 (5=80-100%) | percentage damage caused to the plant, five point scale, ECHCG [6]: 5 (5=80-100%) | percentage damage caused to the plant, five point scale, ABUTH [7]: 5 (5=80-100%) | percentage damage caused to the plant, five point scale, IPOHE [8]: 5 (5=80-100%) | percentage damage caused to the plant, five point scale, SETFA (Setaria faberi (SETFA) [9]): 5 (5=80-100%) | percentage damage caused to the plant, five point scale, AMARE [10]: 5 (5=80-100%) | percentage damage caused to the plant, five point scale, ECHCG [11]: 5 (5=80-100%) | percentage damage caused to the plant, five point scale, ABUTH [12]: 5 (5=80-100%)

CON(C)c1c(S(C)(=O)=O)ccc(C(=O)Nc2nnnn2C)c1Cl [Compound 1.043, 2-chloro-3-[methoxy(methyl)amino]-4-methylsulfonyl-N-(1-methyltetrazol-5-yl)benzamide]
(%) phytotoxicity observed, SETFA (Setaria faberi (SETFA) [1]): 90% | (%) phytotoxicity observed, AMARE [2]: 100% | percentage damage caused to the plant, five point scale, IPOHE [3]: 5 (5=80-100%) | percentage damage caused to the plant, five point scale, SETFA (Setaria faberi (SETFA) [4]): 5 (5=80-100%) | percentage damage caused to the plant, five point scale, AMARE [5]: 5 (5=80-100%) | percentage damage caused to the plant, five point scale, ECHCG [6]: 5 (5=80-100%) | percentage damage caused to the plant, five point scale, ABUTH [7]: 5 (5=80-100%) | percentage damage caused to the plant, five point scale, IPOHE [8]: 5 (5=80-100%) | percentage damage caused to the plant, five point scale, SETFA (Setaria faberi (SETFA) [9]): 5 (5=80-100%) | percentage damage caused to the plant, five point scale, AMARE [10]: 5 (5=80-100%) | percentage damage caused to the plant, five point scale, ECHCG [11]: 5 (5=80-100%) | percentage damage caused to the plant, five point scale, ABUTH [12]: 5 (5=80-100%)

CON(C(=O)C(C)(C)C)c1c(C(F)(F)F)ccc(C(=O)Nc2nnnn2C)c1F [Compound 1.063]
percentage damage caused to the plant, five point scale, IPOHE [3]: 4 (4=60-79%) | percentage damage caused to the plant, five point scale, SETFA (Setaria faberi (SETFA) [4]): 5 (5=80-100%) | percentage damage caused to the plant, five point scale, AMARE [5]: 5 (5=80-100%) | percentage damage caused to the plant, five point scale, ECHCG [6]: 5 (5=80-100%) | percentage damage caused to the plant, five point scale, ABUTH [7]: 5 (5=80-100%) | percentage damage caused to the plant, five point scale, IPOHE [8]: 2 (2=20-39%) | percentage damage caused to the plant, five point scale, SETFA (Setaria faberi (SETFA) [9]): 5 (5=80-100%) | percentage damage caused to the plant, five point scale, AMARE [10]: 5 (5=80-100%) | percentage damage caused to the plant, five point scale, ECHCG [11]: 5 (5=80-100%) | percentage damage caused to the plant, five point scale, ABUTH [12]: 5 (5=80-100%)

CON(C)c1c(C(F)(F)F)ccc(C(=O)Nc2nnnn2C)c1F [Compound 1.065]
percentage damage caused to the plant, five point scale, IPOHE [3]: 5 (5=80-100%) | percentage damage caused to the plant, five point scale, SETFA (Setaria faberi (SETFA) [4]): 5 (5=80-100%) | percentage damage caused to the plant, five point scale, AMARE [5]: 5 (5=80-100%) | percentage damage caused to the plant, five point scale, ECHCG [6]: 5 (5=80-100%) | percentage damage caused to the plant, five point scale, ABUTH [7]: 5 (5=80-100%) | percentage damage caused to the plant, five point scale, IPOHE [8]: 5 (5=80-100%) | percentage damage caused to the plant, five point scale, SETFA (Setaria faberi (SETFA) [9]): 5 (5=80-100%) | percentage damage caused to the plant, five point scale, AMARE [10]: 5 (5=80-100%) | percentage damage caused to the plant, five point scale, ECHCG [11]: 5 (5=80-100%) | percentage damage caused to the plant, five point scale, ABUTH [12]: 5 (5=80-100%)

CON(C(C)=O)c1c(C(F)(F)F)ccc(C(=O)Nc2nnc(C)o2)c1Cl [Compound 2.001]
percentage damage caused to the plant, five point scale, IPOHE [3]: 5 (5=80-100%) | percentage damage caused to the plant, five point scale, SETFA (Setaria faberi (SETFA) [4]): 5 (5=80-100%) | percentage damage caused to the plant, five point scale, AMARE [5]: 5 (5=80-100%) | percentage damage caused to the plant, five point scale, ECHCG [6]: 5 (5=80-100%) | percentage damage caused to the plant, five point scale, ABUTH [7]: 5 (5=80-100%) | percentage damage caused to the plant, five point scale, IPOHE [8]: 4 (4=60-79%) | percentage damage caused to the plant, five point scale, SETFA (Setaria faberi (SETFA) [9]): 5 (5=80-100%) | percentage damage caused to the plant, five point scale, AMARE [10]: 5 (5=80-100%) | percentage damage caused to the plant, five point scale, ECHCG [11]: 5 (5=80-100%) | percentage damage caused to the plant, five point scale, ABUTH [12]: 5 (5=80-100%)

CON(C(C)=O)c1c(C(F)(F)F)ccc(C(=O)Nc2nnc(C)o2)c1C [Compound 2.002]
(%) phytotoxicity observed, SETFA (Setaria faberi (SETFA) [1]): 90% | (%) phytotoxicity observed, AMARE [2]: 50% | percentage damage caused to the plant, five point scale, IPOHE [3]: 5 (5=80-100%) | percentage damage caused to the plant, five point scale, SETFA (Setaria faberi (SETFA) [4]): 5 (5=80-100%) | percentage damage caused to the plant, five point scale, AMARE [5]: 5 (5=80-100%) | percentage damage caused to the plant, five point scale, ECHCG [6]: 5 (5=80-100%) | percentage damage caused to the plant, five point scale, ABUTH [7]: 5 (5=80-100%) | percentage damage caused to the plant, five point scale, IPOHE [8]: 5 (5=80-100%) | percentage damage caused to the plant, five point scale, SETFA (Setaria faberi (SETFA) [9]): 5 (5=80-100%) | percentage damage caused to the plant, five point scale, AMARE [10]: 5 (5=80-100%) | percentage damage caused to the plant, five point scale, ECHCG [11]: 5 (5=80-100%) | percentage damage caused to the plant, five point scale, ABUTH [12]: 5 (5=80-100%)

CON(C(=O)OC(C)(C)C)c1c(C(F)(F)F)ccc(C(=O)Nc2nnc(C)o2)c1Cl [Compound 2.009, tert-butyl N-[2-chloro-3-[(5-methyl-1,3,4-oxadiazol-2-yl)carbamoyl]-6-(trifluoromethyl)phenyl]-N-methoxy-carbamate]
percentage damage caused to the plant, five point scale, IPOHE [3]: 3 (3=40-59%) | percentage damage caused to the plant, five point scale, SETFA (Setaria faberi (SETFA) [4]): 5 (5=80-100%) | percentage damage caused to the plant, five point scale, AMARE [5]: 3 (3=40-59%) | percentage damage caused to the plant, five point scale, ECHCG [6]: 5 (5=80-100%) | percentage damage caused to the plant, five point scale, ABUTH [7]: 3 (3=40-59%) | percentage damage caused to the plant, five point scale, IPOHE [8]: 1 (1=0-19%) | percentage damage caused to the plant, five point scale, SETFA (Setaria faberi (SETFA) [9]): 2 (2=20-39%) | percentage damage caused to the plant, five point scale, AMARE [10]: 5 (5=80-100%) | percentage damage caused to the plant, five point scale, ECHCG [11]: 5 (5=80-100%) | percentage damage caused to the plant, five point scale, ABUTH [12]: 3 (3=40-59%)

CCC(=O)N(OC)c1c(C(F)(F)F)ccc(C(=O)Nc2nnc(C)o2)c1Cl [Compound 2.018]
percentage damage caused to the plant, five point scale, IPOHE [3]: 5 (5=80-100%) | percentage damage caused to the plant, five point scale, SETFA (Setaria faberi (SETFA) [4]): 5 (5=80-100%) | percentage damage caused to the plant, five point scale, AMARE [5]: 5 (5=80-100%) | percentage damage caused to the plant, five point scale, ECHCG [6]: 5 (5=80-100%) | percentage damage caused to the plant, five point scale, ABUTH [7]: 5 (5=80-100%) | percentage damage caused to the plant, five point scale, IPOHE [8]: 4 (4=60-79%) | percentage damage caused to the plant, five point scale, SETFA (Setaria faberi (SETFA) [9]): 5 (5=80-100%) | percentage damage caused to the plant, five point scale, AMARE [10]: 5 (5=80-100%) | percentage damage caused to the plant, five point scale, ECHCG [11]: 5 (5=80-100%) | percentage damage caused to the plant, five point scale, ABUTH [12]: 5 (5=80-100%)

CCCON(C)c1c(S(C)(=O)=O)ccc(C(=O)Nc2nnc(C)o2)c1Cl [Compound 2.024]
(%) phytotoxicity observed, SETFA (Setaria faberi (SETFA) [1]): 80% | (%) phytotoxicity observed, AMARE [2]: 80% | percentage damage caused to the plant, five point scale, IPOHE [3]: 5 (5=80-100%) | percentage damage caused to the plant, five point scale, SETFA (Setaria faberi (SETFA) [4]): 5 (5=80-100%) | percentage damage caused to the plant, five point scale, AMARE [5]: 5 (5=80-100%) | percentage damage caused to the plant, five point scale, ECHCG [6]: 5 (5=80-100%) | percentage damage caused to the plant, five point scale, ABUTH [7]: 5 (5=80-100%) | percentage damage caused to the plant, five point scale, IPOHE [8]: 5 (5=80-100%) | percentage damage caused to the plant, five point scale, SETFA (Setaria faberi (SETFA) [9]): 5 (5=80-100%) | percentage damage caused to the plant, five point scale, AMARE [10]: 5 (5=80-100%) | percentage damage caused to the plant, five point scale, ECHCG [11]: 5 (5=80-100%) | percentage damage caused to the plant, five point scale, ABUTH [12]: 5 (5=80-100%)

Cn1nnnc1NC(=O)c1ccc(C(F)(F)F)c(N)c1Cl [Compound C1, reference compound]
(%) phytotoxicity observed, SETFA (Setaria faberi (SETFA) [1]): 20% | (%) phytotoxicity observed, AMARE [2]: 10%

Reference: patent publication US11851411B2, “Herbicidal compounds” (SYNGENTA CROP PROTECTION AG, priority 2018, dated 2023)
